# Assay results as given in ChEMBL document CHEMBL1201862, “PubChem BioAssay data set” (2004).
#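 How tested: cells in 96-well plates exposed to compound for 48 hours at five concentrations. The concentration for 50% growth inhibition is given as GI50.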 The source made the active and inactive calls. Rule as the data show it: active = GI50 up to about 1.1 µM and inactive = higher.
# How the values were obtained:
# Assay in all cases: NCI tumour cell line growth inhibition, 48 h
# Hs-578T = tested on: Hs-578T
# K562 = tested on: K562
# COLO 205 = tested on: COLO 205
# HCT-15 = tested on: HCT-15
# SF-295 = tested on: SF-295
# SK-MEL-2 = tested on: SK-MEL-2
# CAKI-1 = tested on: CAKI-1
# OVCAR-8 = tested on: OVCAR-8
# MDA-MB-231 = tested on: MDA-MB-231
# MDA-MB-435 = tested on: MDA-MB-435
# SK-MEL-5 = tested on: SK-MEL-5
# KM12 = tested on: KM12
# HT-29 = tested on: HT-29
# HOP-62 = tested on: HOP-62
# ACHN = tested on: ACHN
# A549 = tested on: A549
# U-251 = tested on: U-251
# SNB-75 = tested on: SNB-75
# SNB-19 = tested on: SNB-19
Structure (SMILES),GI50 (Hs-578T),GI50 (K562),GI50 (COLO 205),GI50 (HCT-15) [µM],GI50 (SF-295),GI50 (SK-MEL-2),GI50 (CAKI-1),GI50 (OVCAR-8),GI50 (MDA-MB-231),GI50 (MDA-MB-435),GI50 (SK-MEL-5),GI50 (KM12),GI50 (HT-29),GI50 (HOP-62),GI50 (ACHN),GI50 (A549),GI50 (U-251),GI50 (SNB-75),GI50 (SNB-19)
CN(C)C=O.O=C(Nc1nnn[nH]1)c1nc(O)cc(-c2ccccc2)n1,> 100 µM (inactive),> 100 µM (inactive),> 100 µM (inactive),> 100,> 100 µM (inactive),> 100 µM (inactive),> 100 µM (inactive),> 100 µM (inactive),> 100 µM (inactive),> 100 µM (inactive),> 100 µM (inactive),> 100 µM (inactive),> 100 µM (inactive),> 100 µM (inactive),> 100 µM (inactive),> 100 µM (inactive),> 100 µM (inactive),> 100 µM (inactive),> 100 µM (inactive)
CC1=C/C(=C(/c2ccc(O)c(C)c2)c2ccccc2C(=O)O)C=CC1=O,25.4 µM (inactive),21.3 µM (inactive),19.9 µM (inactive),21.4,21.8 µM (inactive),20.6 µM (inactive),17.6 µM (inactive),20 µM (inactive),19.9 µM (inactive),17.6 µM (inactive),20.4 µM (inactive),19.3 µM (inactive),21.9 µM (inactive),19 µM (inactive),18.3 µM (inactive),19.5 µM (inactive),18.2 µM (inactive),18.5 µM (inactive),17.7 µM (inactive)
O=C1C=CC(=O)c2c1ccc1c3ccccc3n(Cc3cccc([N+](=O)[O-])c3)c21,> 71.9 µM (inactive),6.92 µM (inactive),14.3 µM (inactive),21.5,> 100 µM (inactive),39.8 µM (inactive),14.7 µM (inactive),30.4 µM (inactive),24.2 µM (inactive),26.2 µM (inactive),53.3 µM (inactive),> 100 µM (inactive),30.4 µM (inactive),> 100 µM (inactive),18.2 µM (inactive),> 100 µM (inactive),> 89.5 µM (inactive),> 78.2 µM (inactive),> 100 µM (inactive)
CN(C)CC(O)CNC(=O)Nc1ccccc1 (stereo not drawn),> 100 µM (inactive),> 100 µM (inactive),> 100 µM (inactive),> 100,> 100 µM (inactive),> 100 µM (inactive),> 100 µM (inactive),> 100 µM (inactive),> 100 µM (inactive),> 100 µM (inactive),> 100 µM (inactive),> 100 µM (inactive),> 100 µM (inactive),> 100 µM (inactive),> 100 µM (inactive),> 100 µM (inactive),> 100 µM (inactive),> 100 µM (inactive),> 100 µM (inactive)
CC(=O)c1cc2c(Br)cccc2oc1=O,> 100 µM (inactive),99.1 µM (inactive),> 100 µM (inactive),> 100,> 100 µM (inactive),> 100 µM (inactive),> 100 µM (inactive),> 100 µM (inactive),> 100 µM (inactive),54.5 µM (inactive),> 100 µM (inactive),,> 100 µM (inactive),> 100 µM (inactive),> 100 µM (inactive),> 100 µM (inactive),63.4 µM (inactive),> 100 µM (inactive),> 100 µM (inactive)
CCCCCCCCCCCCOCC1(COCCCCCCCCCCCC)COC(c2ccc(N)cc2)OC1,> 100 µM (inactive),> 100 µM (inactive),,> 100,> 100 µM (inactive),> 100 µM (inactive),> 100 µM (inactive),> 100 µM (inactive),> 100 µM (inactive),> 100 µM (inactive),> 100 µM (inactive),> 100 µM (inactive),> 100 µM (inactive),> 100 µM (inactive),> 100 µM (inactive),> 100 µM (inactive),> 100 µM (inactive),> 100 µM (inactive),> 100 µM (inactive)
COc1ccc(OC)c(NCC(=O)Nn2cnc3ccc(S(=O)(=O)Nc4cc(OC)ccc4OC)cc3c2=O)c1,> 100 µM (inactive),44.3 µM (inactive),> 100 µM (inactive),> 100,70.3 µM (inactive),35.4 µM (inactive),> 100 µM (inactive),> 100 µM (inactive),> 100 µM (inactive),29.5 µM (inactive),,46 µM (inactive),45.5 µM (inactive),> 100 µM (inactive),> 100 µM (inactive),90.8 µM (inactive),> 100 µM (inactive),> 100 µM (inactive),> 100 µM (inactive)
COC(=O)[C@H](CNC(=O)/C=C/c1ccc(OC(C)=O)c(OC(C)=O)c1)NC(=O)/C=C/c1ccc(OC(C)=O)c(OC(C)=O)c1,> 100 µM (inactive),> 100 µM (inactive),> 100 µM (inactive),69.7,,> 100 µM (inactive),> 100 µM (inactive),> 100 µM (inactive),> 100 µM (inactive),> 100 µM (inactive),62.7 µM (inactive),> 100 µM (inactive),> 100 µM (inactive),> 100 µM (inactive),> 100 µM (inactive),> 100 µM (inactive),> 100 µM (inactive),> 100 µM (inactive),> 100 µM (inactive)
CC(=O)O[C@H]1C(=O)[C@@]2(C)[C@H]([C@H](OC(=O)c3ccc(F)cc3)[C@]3(O)C[C@H](OC(=O)[C@H](O)[C@@H](NC(=O)c4ccccc4)c4ccccc4)C(C)=C1C3(C)C)[C@]1(OC(C)=O)CO[C@@H]1C[C@@H]2O,0.00536 µM (active),0.00859 µM (active),0.0108 µM (active),1.47,0.168 µM (active),0.0597 µM (active),3.82 µM (inactive),0.0181 µM (active),0.219 µM (active),0.0025 µM (active),0.023 µM (active),0.0113 µM (active),0.00678 µM (active),0.126 µM (active),0.802 µM (active),0.082 µM (active),0.00857 µM (active),0.0189 µM (active),0.0306 µM (active)
COC(=O)C(CC(C)C)NC(=O)C(NC(=O)c1ccc(-c2ccc(Cl)cc2Cl)o1)C(C)C (stereo not drawn),27.5 µM (inactive),16 µM (inactive),17.7 µM (inactive),20.7,16.2 µM (inactive),21.3 µM (inactive),15.7 µM (inactive),28.2 µM (inactive),13.8 µM (inactive),22.1 µM (inactive),20.3 µM (inactive),20.8 µM (inactive),15.3 µM (inactive),21.4 µM (inactive),20.8 µM (inactive),21 µM (inactive),17.9 µM (inactive),23.9 µM (inactive),30.5 µM (inactive)
COC(=O)C(/C(=N/NC(=O)c1ccncc1)C(=O)Nc1ccccc1OC)c1nc2ccc(Cl)cc2nc1O (stereo not drawn),> 100 µM (inactive),75.9 µM (inactive),,63.5,> 100 µM (inactive),> 100 µM (inactive),> 100 µM (inactive),> 100 µM (inactive),> 100 µM (inactive),44.3 µM (inactive),> 100 µM (inactive),92 µM (inactive),> 100 µM (inactive),> 100 µM (inactive),> 100 µM (inactive),> 100 µM (inactive),> 100 µM (inactive),> 100 µM (inactive),
